Each structure is given as a SMILES string. ≈ marks a conversion by molar mass, not a printed value. Read-outs that look alike come from different tables or passages of the source.

In series [1] the test system is HRV3. The experiment in a line: Antiviral activity, SRB method using CPE reduction, HRV3-infected HeLa cells. The class given is cell-based, human rhinovirus. To be noted: for antiviral activity against HRV3 (in words): HeLa cells; for IC50: Human rhinovirus sp., HRV3, HeLa, HRV3 in HeLa cells, mean ± S.D., ND = maximum inhibition rate under 50%, read-out: IC50, concentration required to inhibit virus-induced cytopathic effect (CPE) by 50%. The method, then:
(§1) HRV 2 and 3 were provided by the ATCC (American Type Culture Collection, Manassas, VA, USA) and were propagated in human epitheloid carcinoma cervix (HeLa) cells at 32 °C. HeLa cells were maintained in minimal essential medium (MEM) supplemented with 10% fetal bovine serum (FBS) and 0.01% antibiotic-antimycotic.
(§2) Assays of antiviral activity and cytotoxicity were evaluated by the SRB method using CPE reduction, recently reported. […] Next day, medium was removed and then washed with 1× phosphate buffered saline (PBS). Infectivity of virus stock was determined by the SRB method using cytopathic effect (CPE) reduction and was determined as infectivity of the virus by SRB ID50 (50% infective dose). […] The antiviral activity of each test material was determined with a 10-fold diluted concentration ranging from 0.1 to 100 μg/mL. Three wells were used as virus controls (virus-infected non-drug-treated cells) while three wells were used as cell controls (non-infected non-drug-treated cells). The culture plates were incubated at 37 °C in 5% CO2 for 2 days. After washing 1 times with 1× PBS, 100 μL of cold (−20 °C) 70% acetone were added to each well and left for 30 min at −20 °C. 70% acetone was removed and 96-well plates were left at dry oven for 30 min. 100 μL of 0.4% (w/v) SRB in 1% acetic acid solution were added to each well and left at room temperature for 30 min. Unbound SRB was removed and the plates were washed 5 times with 1% acetic acid before oven drying and were then left in a dry oven for 1 day. Bound SRB was solubilized with 100 μL of 10 mM unbuffered tris-base solution and plates were left on a table for 30 min. The absorbance was read at 540 nm by using a VERSAmax microplate reader (Molecular Devices, Palo Alto, CA, USA) with a reference absorbance at 620 nm. To calculate the IC50 values, the results were transformed to percentage of controls and the IC50 values were graphically obtained from the dose-response curves. The percent protection achieved by the test compound in HRV2 or HRV3-infected cells was calculated by the following formula: […]
(§3) where (ODt)virus is the optical density measured with a given concentration of the test compound in virus-infected cells; (ODc)virus is the optical density measured for the control untreated virus-infected cells; and (ODc)mock is the optical density measured for control untreated mock-infected cells. The concentration achieving 50% protection according to the formula above was defined as the 50% inhibitory concentration (IC50). The therapeutic index was defined as CC50/IC50. […] Next day, medium was removed and the 96-well plates were replaced with media containing the serially diluted compounds and the cells were further incubated for 48 h. The culture medium was removed and washed with 1× PBS. The next step was conducted by antiviral activity assay above described. To calculate the CC50 values, the results were transformed to percentage of controls and the CC50 values were graphically obtained from the dose-response curves. Ribavirin was used as positive, and dimethyl sulfoxide (DMSO) was used as negative control.
(In general: The SRB assay estimates cell density from bound dye.)

In series [2] the test system is HRV2. In words: Microscopic observation of HRV2-induced CPE in HeLa cells. Type of series: cell-based, human rhinovirus. To be noted: HRV2-infected HeLa cells, 20 μg/mL, 32 °C, 2 days. The method, then: (§4) After a 2-day infection of HeLa cells with HRV2 and HRV3, the effect of compound 1 and compound 3 on HRV-induced cytopathic effect (CPE) investigated.
(§5) Figure 3 The effect of compound 1 or compound 3 on HRV2 (left group; I) and HRV 3 (right group; II)-induced CPE. The virus-infected cells were treated with compound 1 or compound 3 of 20 μg/mL. After incubation at 32 °C in 5% of CO2 for 2 days, the cell morphology was photographed under a microscope.
(§6) Briefly, HeLa cells were seeded onto a 96-well culture plate at a concentration of 2 × 10^4 cells per well. The next day, the medium was removed and washed with PBS. Then, 0.09 mL of diluted virus suspension and 0.01 mL of medium supplemented with 20 mM MgCl2 containing compound 1 or compound 3 of 20 μg/mL were added. After incubation at 32 °C in 5% CO2 for 2 days, the morphology of cells was observed under microscope of 32 × 10 magnifications (St Ernst-Leitz, Wetzlar, Germany), and images were recorded.

In series [3] the test system is HRV2. In words: Antiviral activity, SRB method using CPE reduction, HRV2-infected HeLa cells. Type of series: cell-based, human rhinovirus. The settings on record: for IC50: Human rhinovirus sp., HRV2, HeLa, HRV2 in HeLa cells, mean ± S.D., read-out: IC50, concentration required to inhibit virus-induced cytopathic effect (CPE) by 50%; for TI, therapeutic index = CC50/IC50: HRV2; for antiviral activity against HRV2 (in words): HeLa cells. Here is the method: as §1, §2, §3

The nature of series [4]: Cytotoxicity, SRB method, non-infected HeLa cells, 48 h. The class given is cell-based, human. The settings on record: human, non-infected HeLa cells, Table 4, read-out: CC50, concentration required to reduce cell growth by 50%. Here is the method:
as §2, §3

Series [5] deals with HRV3. In words: Microscopic observation of HRV3-induced CPE in HeLa cells. Type of series: cell-based, human rhinovirus. The settings on record: HRV3-infected HeLa cells, 20 μg/mL, 32 °C, 2 days. Here is the method:
as §4, §5, §6

Another series relates to HeLa cells. In words: Cytotoxicity, SRB method, non-infected HeLa cells, 48 h. To be noted: Table 2, column under HRV3. The class given is cell-based, human. Here is the method: as §2, §3

For `OCc1cc(O)c(O)c(Br)c1Br` [Compound 1, 2,3-Dibromo-4,5-dihydroxybenzyl alcohol], in the series with HRV3 [1], the “antiviral activity against HRV3 (in words)” value is on record as “did not show anti-HRV3 activity”. Also, in the series on HRV2 [2], the “effect on HRV2-induced visible CPE” value is “inhibited the formation of a visible CPE”. Also, in the series on HRV2 [3] (Table 4), the IC50 is 2.5 ± 0.66 µg/mL (≈ 8.39 µM) and the “TI, therapeutic index = CC50/IC50” value turned out to be 8.00. Also, in series [4], the CC50 at 48 h is above 20 µg/mL.
Regarding `O=Cc1cc(O)c(O)c(Br)c1Br` [Compound 2, 2,3-Dibromo-4,5-dihydroxybenzaldehyde], the “antiviral activity against HRV3 (in words)” value with HRV3 [1] was “no antiviral effect”. Moreover, in the series on HRV2 [3], the “antiviral activity against HRV2 (in words)” value was “no antiviral effect”.
On to `COCc1cc(O)c(O)c(Br)c1Cc1cc(O)c(O)c(Br)c1Br` [Compound 3, 2,2′,3-Tribromo-3′,4,4′,5-tetrahydroxy-6′-methoxymethyldiphenylmethane], for which the IC50 in the series with HRV3 [1] (Table 4) came to 4.69 ± 0.44 µg/mL (≈ 9.14 µM); with HRV2 [3] (Table 4) it was 7.11 ± 0.64 µg/mL (≈ 13.9 µM). Further, the “TI, therapeutic index = CC50/IC50” value was determined as 4.26 with HRV3 [1] (Table 4, HRV3) and 2.81 with HRV2 [3] (Table 4). For the same compound, the “effect on HRV2-induced visible CPE” value in the series with HRV2 [2] is given as “inhibited the formation of a visible CPE”. Also, in series [4], the CC50 at 48 h is above 20 µg/mL. The “effect on HRV3-induced visible CPE” value in the series on HRV3 [5] is “inhibited the formation of a visible CPE”.
In the case of `COCc1cc(O)c(O)c(Br)c1Br` [Compound 4, 2,3-Dibromo-4,5-dihydroxybenzyl methyl ether], the “antiviral activity against HRV3 (in words)” value in the series on HRV3 [1] was “no antiviral effect”. In the series on HRV2 [3], the “antiviral activity against HRV2 (in words)” value is on record as “no antiviral effect”.
On to `COCc1cc(Br)c(O)c(O)c1Br` [Compound 5, 2,5-Dibromo-3,4-dihydroxy-benzyl methyl ether], for which, in the series on HRV3 [1], the “antiviral activity against HRV3 (in words)” value is “no antiviral effect”. For the same compound, the “antiviral activity against HRV2 (in words)” value in the series with HRV2 [3] was “no antiviral effect”.
For `Oc1cc(Cc2cc(O)c(O)c(Br)c2Br)c(Br)c(Br)c1O` [Compound 6, 2,2′,3,3′-Tetrabromo-4,4′,5,5′-tetrahydroxydiphenylmethane], the “antiviral activity against HRV3 (in words)” value with HRV3 [1] was “no antiviral effect”. Moreover, the “antiviral activity against HRV2 (in words)” value with HRV2 [3] is “no antiviral effect”.
In the case of `NC(=O)c1ncn([C@@H]2O[C@H](CO)[C@@H](O)[C@H]2O)n1` [Ribavirin, reference compound], the IC50 with HRV3 [1] (Table 2) came out at 14.2 ± 2.2 µg/mL (≈ 58.4 µM); in the series on HRV3 [1] (Table 4), 5.09 ± 0.6 µg/mL (≈ 20.8 µM); in the series on HRV2 [3] (Table 2, ND = maximum inhibition rate under 50%), 17.1 ± 1.48 µg/mL (≈ 70.2 µM); in the series on HRV2 [3] (Table 4), 2.15 ± 0.51 µg/mL (≈ 8.8 µM). For the same compound, in the series with HRV2 [2], the “effect on HRV2-induced visible CPE” value is recorded as “prevented a CPE”. Moreover, the “CC50, concentration required to reduce cell growth by 50%” value in the series on HeLa cells is listed as above 20 µg/mL. Moreover, in series [4], the CC50 at 48 h was above 20 µg/mL. For the same compound, in the series with HRV3 [5], the “effect on HRV3-induced visible CPE” value is recorded as “prevented a CPE”.
